Test results as given in US20070249725A1, “Pharmaceutical formulations of sympathetic antagonist for the treatment of chronic muscle pain” (priority 2006, published 2007).
Counter-ions that a name gives are not always drawn.

Assay: Adverse events in subjects treated by trigger point injection (Example 1)
Format: in vivo, human
Description: A total of 326 male and female subjects, approximately 15 to 85 years old with pain of 4-72 month duration were treated with various doses of phenoxybenzamine. If a potential subject had pain that was clearly muscular and clearly not due to arthritis, nerve root compression or other extramuscular cause, the subject was considered a candidate for phenoxybenzamine hydrochloride injection. Trigger points were identified by palpation. A monopolar EMG needle was then inserted into the trigger point. Another monopolar EMG needle was inserted into a nearby nontender fibers of the same muscle. […] The treatment was repeated in up to 10-12 trigger points per treatment session. Subjects could return for up to 6 treatment sessions, depending on the extent of their pain. The initial treatment was with a dose of 25 mg of phenoxybenzamine hydrochloride in an injection volume of 2 ml. […] For 318 subjects, data were available for analysis for the doses of phenoxybenzamine hydrochloride used, efficacy and incidence of serious adverse events.
The frequencies of other adverse events occurring in the first 199 subjects treated, including the first 87 subjects treated with the 3 mg dose, are given in the table below. Results with an additional 131 subjects treated with the 3 mg dose have been similar.

[1] = 10-25 mg, single injection, N 23

CC(COc1ccccc1)N(CCCl)Cc1ccccc1 (stereo not shown) [Phenoxybenzamine Hydrochloride, phenoxybenzamine hydrochloride]
Burning, number of subjects [1]: 1
Cold sensation, % of subjects [1]: (4%)
Cold sensation, number of subjects [1]: 1
Diaphoresis, % of subjects [1]: (0%)
Diarrhea, % of subjects [1]: (0%)
Dizziness, % of subjects [1]: (0%)
Dry mouth, % of subjects [1]: (0%)
Dysphagia, % of subjects [1]: (4%)
Dysphagia, number of subjects [1]: 1
Dyspnea, % of subjects [1]: (0%)
Epistaxis, % of subjects [1]: (4%)
Epistaxis, number of subjects [1]: 1
Fatigue, % of subjects [1]: (4%)
Fatigue, number of subjects [1]: 1
Fever, % of subjects [1]: (0%)
Flu syndrome, % of subjects [1]: (0%)
Hair disorder, % of subjects [1]: (0%)
Headache, % of subjects [1]: (0%)
Hypesthesia, % of subjects [1]: (9%)
Hypesthesia, number of subjects [1]: 2
Injection site drainage, % of subjects [1]: (0%)
Injection site soreness, % of subjects [1]: (35%)
Injection site soreness, number of subjects [1]: 8
Injection site swelling, % of subjects [1]: 26%
Injection site swelling, number of subjects [1]: 6
Lethargy, % of subjects [1]: (0%)
Lightheadedness, % of subjects [1]: (4%)
Lightheadedness, number of subjects [1]: 1
Nasal disorder, % of subjects [1]: (9%)
Nasal disorder, number of subjects [1]: 2
Nausea, % of subjects [1]: (0%)
Pain, % of subjects [1]: (26%)
Pain, number of subjects [1]: 6
Palpitations, % of subjects [1]: (0%)
Paresthesia, % of subjects [1]: (0%)
Pharyngitis, % of subjects [1]: (0%)
Pruritis, % of subjects [1]: (0%)
Rash, % of subjects [1]: 4%
Rash, number of subjects [1]: 1
Stiffness, % of subjects [1]: (13%)
Stiffness, number of subjects [1]: 3
Swelling, % of subjects [1]: (0%)
Syncope, % of subjects [1]: (0%)
Tachycardia, % of subjects [1]: (4%)
Tachycardia, number of subjects [1]: 1
Taste disorder, % of subjects [1]: (4%)
Taste disorder, number of subjects [1]: 1
Tremor, % of subjects [1]: (0%)
Vomiting, % of subjects [1]: (0%)
Bruising at injection site, % of subjects (Total of all doses, N 199): (6%)
Bruising at injection site, number of subjects (Total of all doses, N 199): 11
Burning, % of subjects (Total of all doses, N 199): (2%)
Burning, number of subjects (Total of all doses, N 199): 4
Cold sensation, % of subjects (Total of all doses, N 199): (1%)
Cold sensation, number of subjects (Total of all doses, N 199): 2
Diaphoresis, % of subjects (Total of all doses, N 199): (0%)
Diaphoresis, number of subjects (Total of all doses, N 199): 1
Diarrhea, % of subjects (Total of all doses, N 199): (1%)
Diarrhea, number of subjects (Total of all doses, N 199): 2
Dizziness, % of subjects (Total of all doses, N 199): (11%)
Dizziness, number of subjects (Total of all doses, N 199): 21
Dry mouth, % of subjects (Total of all doses, N 199): (0%)
Dry mouth, number of subjects (Total of all doses, N 199): 1
Dysphagia, % of subjects (Total of all doses, N 199): (0%)
Dysphagia, number of subjects (Total of all doses, N 199): 1
Dyspnea, % of subjects (Total of all doses, N 199): (2%)
Dyspnea, number of subjects (Total of all doses, N 199): 4
Epistaxis, % of subjects (Total of all doses, N 199): (0%)
Epistaxis, number of subjects (Total of all doses, N 199): 1
Fatigue, % of subjects (Total of all doses, N 199): (4%)
Fatigue, number of subjects (Total of all doses, N 199): 8
Fever, % of subjects (Total of all doses, N 199): (0%)
Fever, number of subjects (Total of all doses, N 199): 1
Flu syndrome, % of subjects (Total of all doses, N 199): (1%)
Flu syndrome, number of subjects (Total of all doses, N 199): 2
Hair disorder, % of subjects (Total of all doses, N 199): (0%)
Hair disorder, number of subjects (Total of all doses, N 199): 1
Headache, % of subjects (Total of all doses, N 199): (6%)
Headache, number of subjects (Total of all doses, N 199): 12
Hypesthesia, % of subjects (Total of all doses, N 199): (3%)
Hypesthesia, number of subjects (Total of all doses, N 199): 6
Injection site drainage, % of subjects (Total of all doses, N 199): (1%)
Injection site drainage, number of subjects (Total of all doses, N 199): 2
Injection site soreness, % of subjects (Total of all doses, N 199): (30%)
Injection site soreness, number of subjects (Total of all doses, N 199): 59
Injection site swelling, % of subjects (Total of all doses, N 199): 33%
Injection site swelling, number of subjects (Total of all doses, N 199): 66
Lethargy, % of subjects (Total of all doses, N 199): (0%)
Lethargy, number of subjects (Total of all doses, N 199): 1
Lightheadedness, % of subjects (Total of all doses, N 199): (7%)
Lightheadedness, number of subjects (Total of all doses, N 199): 13
Nasal disorder, % of subjects (Total of all doses, N 199): (2%)
Nasal disorder, number of subjects (Total of all doses, N 199): 4
Nausea, % of subjects (Total of all doses, N 199): (9%)
Nausea, number of subjects (Total of all doses, N 199): 18
Pain, % of subjects (Total of all doses, N 199): (5%)
Pain, number of subjects (Total of all doses, N 199): 10
Palpitations, % of subjects (Total of all doses, N 199): (0%)
Palpitations, number of subjects (Total of all doses, N 199): 1
Paresthesia, % of subjects (Total of all doses, N 199): (2%)
Paresthesia, number of subjects (Total of all doses, N 199): 3
Pharyngitis, % of subjects (Total of all doses, N 199): (0%)
Pharyngitis, number of subjects (Total of all doses, N 199): 1
Pruritis, % of subjects (Total of all doses, N 199): (0%)
Pruritis, number of subjects (Total of all doses, N 199): 1
Rash, % of subjects (Total of all doses, N 199): 2%
Rash, number of subjects (Total of all doses, N 199): 3
Stiffness, % of subjects (Total of all doses, N 199): (3%)
Stiffness, number of subjects (Total of all doses, N 199): 6
Swelling, % of subjects (Total of all doses, N 199): (1%)
Swelling, number of subjects (Total of all doses, N 199): 2
Syncope, % of subjects (Total of all doses, N 199): (3%)
Syncope, number of subjects (Total of all doses, N 199): 6
Tachycardia, % of subjects (Total of all doses, N 199): (0%)
Tachycardia, number of subjects (Total of all doses, N 199): 1
Taste disorder, % of subjects (Total of all doses, N 199): (2%)
Taste disorder, number of subjects (Total of all doses, N 199): 4
Tremor, % of subjects (Total of all doses, N 199): (1%)
Tremor, number of subjects (Total of all doses, N 199): 2
Vomiting, % of subjects (Total of all doses, N 199): (4%)
Vomiting, number of subjects (Total of all doses, N 199): 7
